Data taken from US7662814B2, “4-aminothieno[2,3-d]pyrimidine-6-carbonitrile derivatives as PDE7 inhibitors” (Laboratorios Almirall, S.A., priority 2003, dated 2010).

First: CCNc1nc(Cc2ccc(OC)c(OC)c2)nc2sc(C#N)c(C)c12 [Example 95, 2-(3,4-Dimethoxybenzyl)-4-(ethylamino)-5-methylthieno[2,3-d]pyrimidine-6-carbonitrile]
Second: CNc1nc(Cc2ccc(OC)c(OC)c2)nc2sc(C#N)c(C)c12 [Example 94, 2-(3,4-Dimethoxybenzyl)-5-methyl-4-(methylamino)thieno[2,3-d]pyrimidine-6-carbonitrile]
The melting point of the first is lower: 125 to 126 °C for the first, 161 to 163 °C for the second.

First: C=CCN(C)c1nc(Cc2ccc(OC)c(OC)c2)nc2sc(C#N)c(C)c12 [Example 102, 4-[Allyl(methyl)amino]-2-(3,4-dimethoxybenzyl)-5-methylthieno[2,3-d]pyrimidine-6-carbonitrile]
Second: COc1ccc(Cc2nc(NCCO)c3c(C)c(C#N)sc3n2)cc1OC [Example 104, 2-(3,4-Dimethoxybenzyl)-4-[(2-hydroxyethyl)amino]-5-methylthieno[2,3-d]pyrimidine-6-carbonitrile]
The melting point of the first is lower: 98 to 100 °C for the first, 149 to 151 °C for the second.

First: Cc1ccc(-c2nc(N3CCOCC3)c3c(C)c(C#N)sc3n2)cc1 [Example 32, 5-Methyl-2-(4-methylphenyl)-4-morpholin-4-ylthieno[2,3-d]pyrimidine-6-carbonitrile]
Second: COc1ccc(-c2nc(N3CCCC3)c3c(C)c(C#N)sc3n2)cc1 [Example 11, 2-(4-Methoxyphenyl)-5-methyl-4-pyrrolidin-1-ylthieno[2,3-d]pyrimidine-6-carbonitrile]
The melting point of the first is higher: 206 to 207 °C for the first, 176 to 178 °C for the second.

First: COc1cc(-c2nc(N3CCN(C(C)=O)CC3)c3c(C)c(C#N)sc3n2)cc(OC)c1OC [Example 85, 4-(4-Acetylpiperazin-1-yl)-5-methyl-2-(3,4,5-trimethoxyphenyl)thieno[2,3-d]pyrimidine-6-carbonitrile]
Second: COc1cc(-c2nc(N3CCNC(C)C3)c3c(C)c(C#N)sc3n2)cc(OC)c1OC (stereo not shown) [Example 83, 5-Methyl-4-(3-methylpiperazin-1-yl)-2-(3,4,5-trimethoxyphenyl)thieno[2,3-d]pyrimidine-6-carbonitrile]
The melting point of the first is lower: 211 to 213 °C for the first, 213 to 215 °C for the second.

Compared with CCC(C)Nc1nc(-c2cc(OC)c(OC)c(OC)c2)nc2sc(C#N)c(C)c12 (stereo not shown) [Example 71, 4-(sec-Butylamino)-5-methyl-2-(3,4,5-trimethoxyphenyl)thieno[2,3-d]pyrimidine-6-carbonitrile], CCC(CC)Nc1nc(-c2cc(OC)c(OC)c(OC)c2)nc2sc(C#N)c(C)c12 [Example 73, 4-[(1-Ethylpropyl)amino]-5-methyl-2-(3,4,5-trimethoxyphenyl)thieno[2,3-d]pyrimidine-6-carbonitrile] is higher in melting point: 91 to 93 °C for the first, 226 to 228 °C for the second.

Compared with COc1ccc(-c2nc(N(C)C)c3c(C)c(C#N)sc3n2)cc1OC [Example 46, 2-(3,4-Dimethoxyphenyl)-4-(dimethylamino)-5-methylthieno[2,3-d]pyrimidine-6-carbonitrile], CCN(C)c1nc(-c2ccc(OC)c(OC)c2)nc2sc(C#N)c(C)c12 [Example 26, 2-(3,4-Dimethoxyphenyl)-4-[ethyl(methyl)amino]-5-methylthieno[2,3-d]pyrimidine-6-carbonitrile] is lower in melting point: 198 to 200 °C for the first, 133 to 135 °C for the second.

Compared with CCC(C)Nc1nc(Cc2cc(OC)c(OC)c(OC)c2)nc2sc(C#N)c(C)c12 (stereo not shown) [Example 114, 4-(sec-Butylamino)-5-methyl-2-(3,4,5-trimethoxybenzyl)thieno[2,3-d]pyrimidine-6-carbonitrile], COc1cc(Cc2nc(NC(C)C)c3c(C)c(C#N)sc3n2)cc(OC)c1OC [Example 113, 4-(Isopropylamino)-5-methyl-2-(3,4,5-trimethoxybenzyl)thieno[2,3-d]pyrimidine-6-carbonitrile] is higher in melting point: 134 to 137 °C for the first, 143 to 147 °C for the second.

First: COc1cc(-c2nc(-n3cncn3)c3c(C)c(C#N)sc3n2)cc(OC)c1OC [Example 91, 5-Methyl-4-(1H-1,2,4-triazol-1-yl)-2-(3,4,5-trimethoxyphenyl)thieno[2,3-d]pyrimidine-6-carbonitrile]
Second: COc1cc(-c2nc(-n3cccn3)c3c(C)c(C#N)sc3n2)cc(OC)c1OC [Example 88, 5-Methyl-4-(1H-pyrazol-1-yl)-2-(3,4,5-trimethoxyphenyl)thieno[2,3-d]pyrimidine-6-carbonitrile]
The melting point of the first is higher: 236 to 240 °C for the first, 209 to 214 °C for the second.

First: CCN(CC)c1nc(-c2ccc(OC)c(OC)c2)nc2sc(C#N)c(C)c12 [Example 20, 4-(Diethylamino)-2-(3,4-dimethoxyphenyl)-5-methylthieno[2,3-d]pyrimidine-6-carbonitrile]
Second: CCCCNc1nc(-c2cc(OC)c(OC)c(OC)c2)nc2sc(C#N)c(C)c12 [Example 69, 4-(Butylamino)-5-methyl-2-(3,4,5-trimethoxyphenyl)thieno[2,3-d]pyrimidine-6-carbonitrile]
The melting point of the first is lower: 159 to 161 °C for the first, 192 to 194 °C for the second.

First: COc1cc(-c2nc(NC3CCCC3)c3c(C)c(C#N)sc3n2)cc(OC)c1OC [Example 77, 4-(Cyclopentylamino)-5-methyl-2-(3,4,5-trimethoxyphenyl)thieno[2,3-d]pyrimidine-6-carbonitrile]
Second: COc1cc(-c2nc(NCCC(=O)O)c3c(C)c(C#N)sc3n2)cc(OC)c1OC [Example 87, N-[6-Cyano-5-methyl-2-(3,4,5-trimethoxyphenyl)thieno[2,3-d]pyrimidin-4-yl]-beta-alanine]
The melting point of the first is lower: 218 to 220 °C for the first, 222 to 225 °C for the second.

Compared with Cc1c(C#N)sc2nc(-c3ccc4c(c3)OCO4)nc(N3CCN(C)CC3)c12 [Example 34], Cc1c(C#N)sc2nc(-c3ccccc3)nc(N3CCN(C)CC3)c12 [Example 50, 5-Methyl-4-(4-methyl-piperazin-1-yl)-2-phenyl-thieno[2,3-d-]pyrimidine-6-carbonitrile] is higher in melting point: 196 to 197 °C for the first, 223 to 225 °C for the second.

Compared with C#CCN(C)c1nc(-c2ccc(OC)cc2)nc2sc(C#N)c(C)c12 [Example 24, 2-(4-Methoxyphenyl)-5-methyl-4-[methyl(prop-2-ynyl)amino]thieno[2,3-d]pyrimidine-6-carbonitrile], C=CCN(C)c1nc(-c2ccc(OC)cc2)nc2sc(C#N)c(C)c12 [Example 29, 4-[Allyl(methyl)amino]-2-(4-methoxyphenyl)-5-methylthieno[2,3-d]pyrimidine-6-carbonitrile] is lower in melting point: 160 to 171 °C for the first, 126 to 128 °C for the second.

First: Cc1c(C#N)sc2nc(CCCc3ccccc3)nc(N3CCN(C)CC3)c12 [Example 130, 5-Methyl-4-(4-methylpiperazin-1-yl)-2-(3-phenylpropyl)thieno[2,3-d]pyrimidine-6-carbonitrile]
Second: Cc1c(C#N)sc2nc(-c3ccccc3)nc(N3CCCCC3)c12 [Example 4, 5-Methyl-2-phenyl-4-piperidin-1-ylthieno[2,3-d]pyrimidine-6-carbonitrile]
The melting point of the first is lower: 101 to 103 °C for the first, 142 to 144 °C for the second.

Compared with Cc1c(C#N)sc2nc(-c3ccc([N+](=O)[O-])cc3)nc(N3CCNCC3)c12 [Example 13, 5-Methyl-2-(4-nitrophenyl)-4-piperazin-1-ylthieno[2,3-d]pyrimidine-6-carbonitrile], COc1ccc(-c2nc(N3CCNCC3)c3c(C)c(C#N)sc3n2)cc1 [Example 12, 2-(4-Methoxyphenyl)-5-methyl-4-piperazin-1-ylthieno[2,3-d]pyrimidine-6-carbonitrile] is lower in melting point: 250 °C for the first, 210 to 212 °C for the second.
